Test system: anesthetized open-chest dogs
Experiment: Hemodynamics of anesthetized open-chest dogs, intravenous infusion
Type: in vivo, mongrel dogs
Experimental: The animals were anesthetized by intravenous injection of 30 mg/kg sodium pentobarbital, tracheally intubated, and mechanically ventilated with positive air pressure. Left thoracotomy was performed through the fourth intercostal space and the heart was suspended in a pericardial cradle, the aortic root was isolated and a probe of blood flow meter (12 or 14 mm in diameter) was fixed to measure the aortic blood flow as a representation of cardiac output (CO), the circumflex branch of left coronary artery was isolated and a probe of blood flow meter (2 or 2.5 mm in diameter) was fixed to measure the coronary blood flow (CBF). A polyethylene catheter filled with heparin physiological saline was inserted through cardiac apex into the left ventricle to measure the left ventricular pressure (LVP) and left ventricular end-diastolic pressure (LVEDP), Peak positive and peak negative first derivatives of the LVP (+ LVdp/dt and − LVdp/dt) were calculated with the Acknowledge software. The systolic blood pressure (SBP), diastolic blood pressure (DBP) and mean arterial pressure (MAP) were measured by polyethylene catheter via the femoral artery, ECG □ was measured by a AC-601G ECG amplifier. The above-mentioned analog signal was input into a data acquisition workstation (MP100, BIOPAC Systems, USA) to a computer running Acknowledge (version 3.7.1).
After surgery, various indexes before administration were recorded until the indexes were stable, and then intravenous infusion administration was conducted. Thirty dogs were divided into five groups (six dogs in each group), the experiment groups were given 0.15, 0.3, 0.6 mg/kg of ASP-[…] respectively, the normal control group was given 1 ml/kg of solvent, and the positive control group was given 0.3 mg/kg of astragaloside IV. The delivery volumes were 15 ml for each dog was and the delivery velocity was 1 ml/min. The indexes were recorded at 5, 10, 15, 20, 30, 45, 60, 90 and 120 mins after drug administration. At the end of experiment, the hearts were excised and weighted. The myocardial blood flow for per hectogram (CF), coronary resistance (CR), cardiac index (CI), left ventricular work (LVW) and total peripheral resistance (TPR) were calculated according to the following formulae: CF=CBF×[…]/heart weight CR=MAP/CF CI=CO/0.11×(body weight)^2/3 LVW=CO×(MAP−5)×1.052×0.0136 TPR=MAP×79.92/CO
Data are expressed as mean±SD ( x±s), the paired t-test was used to compare the significance between before and after administration, the unpaired t-test was adopted for comparison between groups.

[1] = 0.6 mg/kg iv, 15 min after administration
[2] = 0.6 mg/kg iv, 20 min after administration
[3] = 0.6 mg/kg iv, 30 min after administration
[4] = 0.6 mg/kg iv, 45 min after administration
[5] = 0.6 mg/kg iv, 60 min after administration
[6] = 0.6 mg/kg iv, 90 min after administration
[7] = 0.6 mg/kg iv, 120 min after administration
[8] = 0.6 mg/kg iv, before administration
[9] = 0.15, 0.3 and 0.6 mg/kg iv, within 120 min

## CC(C)(O)[C@@H]1CC[C@](C)([C@H]2[C@@H](O)C[C@@]3(C)C4C[C@H](OC5OC(CO)C(O)C(O)C5O)C5C(C)(C)[C@@H](O)CC[C@@]56C[C@@]46CC[C@]23C)O1 (stereo partly drawn) [CMG, Cycloastragenol-6-O-β-D-glucoside]
[1]
  LVW change vs before administration: (0.06 ± 0.13) kg · m
  TPR: 5249 ± 2234 dyn · s/cm^5
  TPR change vs before administration: (−258 ± 392) dyn · s/cm^5
  dp/dt: 1199 ± 288 mmHg/s
  dp/dt change vs before administration: (95 ± 56) mmHg/s
  −dp/dt: −851 ± 196 mmHg/s
  −dp/dt change vs before administration: (2 ± 98) mmHg/s
[2]
  CF: 49.8 ± 8.0 ml/min/100 g
  CF change vs before administration: (−1.4 ± 1.4) ml/min/100 g
  CI: 2.05 ± 0.41 L/min/m^2
  CI change vs before administration: (0.09 ± 0.18) L/min/m^2
  CO: 1.19 ± 0.34 L/min
  CO change vs before administration: (0.05 ± 0.10) L/min
  CR: 1.48 ± 0.36 mmHg/ml/min/100 g
  CR change vs before administration: (0.06 ± 0.10) mmHg/ml/min/100 g
  LVEDP: 1.2 ± 1.6 mmHg
  LVEDP change vs before administration: (−1.5 ± 0.54) mmHg
  LVP: 107 ± 17 mmHg
  LVP change vs before administration: (0.4 ± 3.9) mmHg
  LVW: 1.13 ± 0.35 kg · m
  LVW change vs before administration: (0.06 ± 0.17) kg · m
  TPR: 5176 ± 1818 dyn · s/cm^5
  TPR change vs before administration: (−331 ± 534) dyn · s/cm^5
  dp/dt: 1276 ± 339 mmHg/s
  dp/dt change vs before administration: (172 ± 151) mmHg/s
  −dp/dt: −842 ± 220 mmHg/s
  −dp/dt change vs before administration: (10 ± 91) mmHg/s
[3]
  CF: 50.7 ± 8.5 ml/min/100 g
  CF change vs before administration: (−0.5 ± 4.0) ml/min/100 g
  CI: 2.05 ± 0.57 L/min/m^2
  CI change vs before administration: (0.09 ± 0.12) L/min/m^2
  CO: 1.20 ± 0.43 L/min
  CO change vs before administration: (0.05 ± 0.07) L/min
  CR: 1.46 ± 0.38 mmHg/ml/min/100 g
  CR change vs before administration: (0.04 ± 0.08) mmHg/ml/min/100 g
  LVEDP: 1.3 ± 1.5 mmHg
  LVEDP change vs before administration: (−1.4 ± 0.6) mmHg
  LVP: 107 ± 17 mmHg
  LVP change vs before administration: (0.9 ± 5.6) mmHg
  LVW: 1.15 ± 0.45 kg · m
  LVW change vs before administration: (0.07 ± 0.13) kg · m
  TPR: 5406 ± 2485 dyn · s/cm^5
  TPR change vs before administration: (−101 ± 366) dyn · s/cm^5
  dp/dt: 1232 ± 274 mmHg/s
  dp/dt change vs before administration: (128 ± 108) mmHg/s
  −dp/dt: −833 ± 243 mmHg/s
  −dp/dt change vs before administration: (20 ± 96) mmHg/s
[4]
  CF: 50.4 ± 7.8 ml/min/100 g
  CF change vs before administration: (−0.8 ± 4.7) ml/min/100 g
  CI: 1.97 ± 0.30 L/min/m^2
  CI change vs before administration: (0.01 ± 0.26) L/min/m^2
  CO: 1.15 ± 0.27 L/min
  CO change vs before administration: (0.00 ± 0.15) L/min
  CR: 1.48 ± 0.35 mmHg/ml/min/100 g
  CR change vs before administration: (0.06 ± 0.16) mmHg/ml/min/100 g
  LVEDP: 1.3 ± 1.7 mmHg
  LVEDP change vs before administration: (−1.41 ± 0.81) mmHg
  LVP: 106 ± 16 mmHg
  LVP change vs before administration: (0.2 ± 5.2) mmHg
  LVW: 1.1 ± 0.29 kg · m
  LVW change vs before administration: (0.03 ± 0.23) kg · m
  TPR: 5337 ± 1723 dyn · s/cm^5
  TPR change vs before administration: (−170 ± 595) dyn · s/cm^5
  dp/dt: 1181 ± 320 mmHg/s
  dp/dt change vs before administration: (77 ± 53) mmHg/s
  −dp/dt: −842 ± 170 mmHg/s
  −dp/dt change vs before administration: (10 ± 126) mmHg/s
[5]
  CF: 50.2 ± 11.6 ml/min/100 g
  CF change vs before administration: (−1.0 ± 6.9) ml/min/100 g
  CI: 2.04 ± 0.36 L/min/m^2
  CI change vs before administration: (0.08 ± 0.24) L/min/m^2
  CO: 1.19 ± 0.32 L/min
  CO change vs before administration: (0.04 ± 0.13) L/min
  CR: 1.53 ± 0.47 mmHg/ml/min/100 g
  CR change vs before administration: (0.11 ± 0.26) mmHg/ml/min/100 g
  LVEDP: 1.6 ± 1.6 mmHg
  LVEDP change vs before administration: (−1.05 ± 0.76) mmHg
  LVP: 105 ± 14 mmHg
  LVP change vs before administration: (−0.8 ± 7.7) mmHg
  LVW: 1.17 ± 0.40 kg · m
  LVW change vs before administration: (0.10 ± 0.20) kg · m
  TPR: 5170 ± 1416 dyn · s/cm^5
  TPR change vs before administration: (−336 ± 1012) dyn · s/cm^5
  dp/dt: 1199 ± 294 mmHg/s
  dp/dt change vs before administration: (95 ± 76) mmHg/s
  −dp/dt: −829 ± 157 mmHg/s
  −dp/dt change vs before administration: (24 ± 167) mmHg/s
[6]
  CF: 48.6 ± 7.2 ml/min/100 g
  CF change vs before administration: (−2.6 ± 2.8) ml/min/100 g
  CI: 2.09 ± 0.53 L/min/m^2
  CI change vs before administration: (0.13 ± 0.20) L/min/m^2
  CO: 1.22 ± 0.40 L/min
  CO change vs before administration: (0.07 ± 0.12) L/min
  CR: 1.52 ± 0.37 mmHg/ml/min/100 g
  CR change vs before administration: (0.11 ± 0.12) mmHg/ml/min/100 g
  LVEDP: 1.3 ± 1.4 mmHg
  LVEDP change vs before administration: (−1.35 ± 0.72) mmHg
  LVP: 105 ± 12 mmHg
  LVP change vs before administration: (−1.3 ± 6.7) mmHg
  LVW: 1.17 ± 0.44 kg · m
  LVW change vs before administration: (0.10 ± 0.11) kg · m
  TPR: 5285 ± 2431 dyn · s/cm^5
  TPR change vs before administration: (−222 ± 606) dyn · s/cm^5
  dp/dt: 1152 ± 313 mmHg/s
  dp/dt change vs before administration: (48 ± 63) mmHg/s
  −dp/dt: −815 ± 238 mmHg/s
  −dp/dt change vs before administration: (37 ± 55) mmHg/s
[7]
  CF: 49.3 ± 7.3 ml/min/100 g
  CF change vs before administration: (−1.9 ± 5.0) ml/min/100 g
  CI: 2.07 ± 0.47 L/min/m^2
  CI change vs before administration: (0.11 ± 0.22) L/min/m^2
  CO: 1.21 ± 0.38 L/min
  CO change vs before administration: (0.06 ± 0.13) L/min
  CR: 1.42 ± 0.27 mmHg/ml/min/100 g
  CR change vs before administration: (0.00 ± 0.17) mmHg/ml/min/100 g
  LVEDP: 2.0 ± 1.2 mmHg
  LVEDP change vs before administration: (−0.73 ± 0.52) mmHg
  LVP: 102 ± 17 mmHg
  LVP change vs before administration: (−4.4 ± 5.9) mmHg
  LVW: 1.12 ± 0.42 kg · m
  LVW change vs before administration: (0.04 ± 0.18) kg · m
  TPR: 4925 ± 1674 dyn · s/cm^5
  TPR change vs before administration: (−582 ± 764) dyn · s/cm^5
  dp/dt: 1078 ± 283 mmHg/s
  dp/dt change vs before administration: (−25 ± 109) mmHg/s
  −dp/dt: −789 ± 269 mmHg/s
  −dp/dt change vs before administration: (64 ± 63) mmHg/s
0.6 mg/kg iv, at 5-10 min after administration
  +LVdp/dtmax maximum increase: 22.6±11.8%
[8]
  CF: 51.2 ± 8.0 ml/min/100 g
  CI: 1.96 ± 0.54 L/min/m^2
  CO: 1.15 ± 0.40 L/min
  CR: 1.41 ± 0.35 mmHg/ml/min/100 g
  LVEDP: 2.7 ± 1.3 mmHg
  LVP: 106 ± 16 mmHg
  LVW: 1.08 ± 0.41 kg · m
  TPR: 5507 ± 2267 dyn · s/cm^5
  dp/dt: 1104 ± 295 mmHg/s
  −dp/dt: −852 ± 244 mmHg/s
0.15, 0.3 and 0.6 mg/kg iv
  duration of LVEDP decrease: more than 2 hours
  left ventricular work (LVW): no significant change
[9]
  CF and CR: no significant changes
  CO and CI: no significant changes
  SBP, DBP, MAP and HR: no significant changes
  left ventricular pressure (LVP): no significant change
  total peripheral resistance (TPR): no significant change
0.3 and 0.6 mg/kg iv
  −LVdp/dtmax: no significant effect
